Legend:
GABABR = GABABR (Rattus norvegicus, UniProt O88871+Q9Z0U4); format: cell-based; conditions: with Gαi bystander BRET sensor expression versus control
MOR = conditions: database annotation; cited from earlier work

GABABR, sequence (Q9Z0U4 17-960 limits assumed): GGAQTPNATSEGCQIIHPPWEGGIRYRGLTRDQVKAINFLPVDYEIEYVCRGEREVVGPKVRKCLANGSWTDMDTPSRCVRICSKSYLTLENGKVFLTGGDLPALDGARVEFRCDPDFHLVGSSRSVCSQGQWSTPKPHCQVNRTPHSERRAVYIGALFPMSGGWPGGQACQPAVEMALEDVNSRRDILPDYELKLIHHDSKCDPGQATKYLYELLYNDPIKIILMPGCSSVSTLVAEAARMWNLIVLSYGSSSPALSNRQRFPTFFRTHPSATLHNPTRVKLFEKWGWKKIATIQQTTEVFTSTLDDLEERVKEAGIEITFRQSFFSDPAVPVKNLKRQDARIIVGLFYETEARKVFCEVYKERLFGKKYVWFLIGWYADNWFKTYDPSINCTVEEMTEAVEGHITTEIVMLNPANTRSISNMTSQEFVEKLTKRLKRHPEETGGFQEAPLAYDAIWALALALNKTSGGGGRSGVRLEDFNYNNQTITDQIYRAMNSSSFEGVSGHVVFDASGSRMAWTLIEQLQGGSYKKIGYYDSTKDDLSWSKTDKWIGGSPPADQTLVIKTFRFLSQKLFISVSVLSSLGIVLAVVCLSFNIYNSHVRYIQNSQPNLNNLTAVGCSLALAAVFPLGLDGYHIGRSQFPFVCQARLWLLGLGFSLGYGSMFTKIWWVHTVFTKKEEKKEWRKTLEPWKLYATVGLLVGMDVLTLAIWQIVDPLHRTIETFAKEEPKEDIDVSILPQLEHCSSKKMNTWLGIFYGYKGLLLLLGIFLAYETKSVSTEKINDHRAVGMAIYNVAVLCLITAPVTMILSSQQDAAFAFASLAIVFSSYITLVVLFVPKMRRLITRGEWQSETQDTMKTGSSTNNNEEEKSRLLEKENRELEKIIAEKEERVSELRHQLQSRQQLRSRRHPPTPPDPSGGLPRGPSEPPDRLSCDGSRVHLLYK
GABABR, sequence (O88871 41-940 partner): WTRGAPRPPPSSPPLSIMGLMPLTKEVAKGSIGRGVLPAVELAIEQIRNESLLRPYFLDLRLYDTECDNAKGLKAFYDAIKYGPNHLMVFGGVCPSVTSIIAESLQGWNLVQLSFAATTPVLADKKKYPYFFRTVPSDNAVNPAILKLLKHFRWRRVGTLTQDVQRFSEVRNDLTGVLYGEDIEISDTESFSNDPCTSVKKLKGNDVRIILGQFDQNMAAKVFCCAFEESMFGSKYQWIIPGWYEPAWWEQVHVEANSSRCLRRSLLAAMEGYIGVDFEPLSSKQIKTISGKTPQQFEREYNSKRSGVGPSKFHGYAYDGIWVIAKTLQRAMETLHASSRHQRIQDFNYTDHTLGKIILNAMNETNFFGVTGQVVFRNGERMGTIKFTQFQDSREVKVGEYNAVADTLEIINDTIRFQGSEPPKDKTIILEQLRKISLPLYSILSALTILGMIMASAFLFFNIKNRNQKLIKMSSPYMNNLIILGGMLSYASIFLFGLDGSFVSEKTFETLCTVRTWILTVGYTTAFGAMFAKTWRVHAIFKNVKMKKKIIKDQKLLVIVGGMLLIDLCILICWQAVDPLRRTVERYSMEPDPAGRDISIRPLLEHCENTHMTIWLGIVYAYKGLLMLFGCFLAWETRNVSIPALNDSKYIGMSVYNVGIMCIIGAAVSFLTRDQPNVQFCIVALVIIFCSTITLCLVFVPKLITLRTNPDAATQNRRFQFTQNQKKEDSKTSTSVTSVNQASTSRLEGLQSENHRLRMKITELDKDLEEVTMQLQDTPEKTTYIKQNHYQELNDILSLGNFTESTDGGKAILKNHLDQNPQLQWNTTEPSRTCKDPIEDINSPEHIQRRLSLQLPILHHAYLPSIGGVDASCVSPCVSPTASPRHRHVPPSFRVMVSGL

Row | Compound | increase in the IC50 of inhibition by GABA (GABABR) | Agonist efficacy, MOR: IUPHAR annotation (MOR)
1 | NCCCC(=O)O [GABA] | ~ 4 fold | –
2 | Leu-Enkephalin | – | partial agonist

Source: paper PMC11370452 (bioRxiv, 2024)
